Test: Aqueous solubility
Format: physicochemical
Details: aqueous environments

solubility: < 0.04 µg/mL
Structure (SMILES): CCOC(=O)N1c2ccc(C(F)(F)F)cc2[C@@H](N(Cc2cc(C(F)(F)F)cc(C(F)(F)F)c2)C(=O)OC)C[C@H]1CC [torceptrapib, [2R,4S]-4-[(3,5-bis-trifluoromethyl-benzyl)-methoxycarbonyl-amino]-2-ethyl-6-trifluoromethyl-3,4-dihydro-2H-quinoline-1-carboxylic acid ethyl ester]
